Measurements published in patent US7951800B2, “Anti-infective agents” (Abbott Laboratories, Inc., priority 2006, dated 2011).

Assays:
HCV 1b-N replicon cells = test: passage of HCV 1b-N replicon cells with compounds alone or in combination, absence of neomycin; format: cell-based; details: individual compounds or agents at 10 to 20-fold above their respective EC50
Experimental: The effect of compound I on HCV replicon was evaluated alone or in combination with other anti-HCV agents. […] The EC50 values represent the 50% inhibitory concentrations of these compounds/agents in replicon cell assays.

[1] = liver concentrations after oral dosing in rats; format: in vivo, Male Sprague-Dawley derived rats; details: rat; for concentration at 1 h / concentration at 12 h / concentration at 24 h: male, Sprague-Dawley, liver, 5 mg/kg oral; for EC50 multiple: ratio of post 24-hour liver concentration over EC50 value: EC50 from HCV replicon assays
Experimental: Compounds I, II and III were prepared as a solution in a DMSO: PEG-400 vehicle at a concentration of 5 mg/mL shortly before oral dosing. Male Sprague-Dawley derived rats, weighing 250-350 grams, were obtained from Charles River Laboratories, Inc. (Wilmington, Mass.). The animals were fasted overnight prior to dosing and throughout the study period, but were allowed water ad libitum. Animals were allowed chow ad libitum post 12 hr. Each study used a group of 3 rats. Each rat received a 5 mg/kg (1 mL/kg) oral dose of compound I, II or III administered by gavage. At selected time points after dosing, groups of three rats were euthanized with CO2 and exsanguinated by cardiac puncture. The entire liver tissue from each animal was removed and placed in a labeled plastic container. Groups of rats were sacrificed 1, 12 and 24 hours after drug administration. The liver samples were stored on ice (about 4° C.), and then assayed for the concentration of each compound using high performance liquid chromatographic procedures.

HCV replicon = HCV replicon assays; format: cell-based
Experimental: The 50% inhibitory concentration of an HCV inhibitor (EC50) can also be evaluated using HCV replicon assays as described in Ikeda et al., J. VIROL., 76:2997-3006 (2002), and Blight et al., SCIENCE, 290:1972-1974 (2000), with the following modifications. Replicon cells are plated at 3×10^3 cells per well in 96-well plate in DMEM medium containing 5% fetal calf serum. At day 1, culture medium is removed and replaced with fresh medium containing eight serial 2-fold dilutions of the compound of interest. The final concentration of DMSO in medium is 0.5%. The untreated control culture is treated in an identical manner except no inhibitor is added to the medium. Plates are incubated in a CO2 incubator at 37° C. On Day 4, 100 μl lysis buffer (RTL) (Qiagen) is added to each well after removal of culture medium. RNA is purified according to manufacturer's recommendations (Qiagen RNAeasy) and eluted in 200 μl of water. The HCV RNA level is quantified from a portion (5 μl out of 200 μl) of the purified RNA by real-time RT-PCR method. The primers and probe are derived from specific sequence in the 5′UTR region. RT-PCR reaction is performed at 48° C. for 30 min, followed by 40 cycles set to 95° C., 15 s; 54° C., 30 s; and 72° C., 40 s. […]

Structure (SMILES)	HCV RNA levels during treatment (HCV 1b-N replicon cells)	elimination of HCV RNA from replicon cells (HCV 1b-N replicon cells)	concentration at 1 h [1] [ng/g]	concentration at 12 h [1] [ng/g]	concentration at 24 h [1] [ng/g]	EC50 multiple: ratio of post 24-hour liver concentration over EC50 value ([1]; 24 hours after oral dosing)	higher potency in the inhibition of HCV replication as compared to 1-Benzyl-4-hydroxy-3-[7-(hydroxymethyl)-1,1-dioxido-4H-thieno[2,3-e][1,2,4]thiadiazin-3-yl]quinolin-2(1H)-one (HCV replicon)	EC50 (HCV replicon; Hepatitis C virus, read-out: 50% inhibitory concentration (EC50), HCV replicon assays) [nM]	liver concentration of compound I relative to those of compounds II and III ([1]; 24 hours after oral dosing)
CCC[C@H](NC(=O)C1[C@H]2CCC[C@H]2CN1C(=O)[C@@H](NC(=O)[C@@H](NC(=O)c1cnccn1)C1CCCCC1)C(C)(C)C)C(=O)C(=O)NC1CC1 (stereo partly shown) [compound VX-950]	significantly reduced	none of them eliminated the HCV RNA	–	–	–	–	–	–	–
CS(=O)(=O)NCc1csc2c1S(=O)(=O)N=C(c1c(O)c3ccccc3n(NCC3CC3)c1=O)N2 [compound II, N-[(3-{1-[(cyclopropylmethyl)amino]-4-hydroxy-2-oxo-1,2-dihydroquinolin-3-yl}-1,1-dioxido-4H-thieno[2,3-e][1,2,4]thiadiazin-7-yl)methyl]methanesulfonamide]	–	–	18900	7920	120	significantly lower than that of compound I	–	–	–
CS(=O)(=O)NCc1csc2c1S(=O)(=O)N=C(c1c(O)c3ccccc3n(NC3CCC3)c1=O)N2 [compound I, N-[(3-{1-[(cyclobutyl)amino]-4-hydroxy-2-oxo-1,2-dihydro-quinolin-3-yl}-1,1-dioxo-1,4-dihydro-1λ^6-thieno[2,3-e][1,2,4]thiadiazin-7-yl)methyl]methanesulfonamide]	significantly reduced	none of them eliminated the HCV RNA	18700	19200	2420	more than 1.800 fold	about 100 fold	~2.5	8-20 times
CS(=O)(=O)Nc1ccc2c(c1)S(=O)(=O)N=C(c1c(O)c3ccccc3n(NC3CCC3)c1=O)N2 [compound III, N-{3-[1-(cyclobutylamino)-4-hydroxy-2-oxo-1,2-dihydroquinolin-3-yl]-1,1-dioxido-4H-1,2,4-benzothiadiazin-7-yl}methanesulfonamide]	–	–	8790	4140	280	significantly lower than that of compound I	–	–	–
